Values of other authors as cited in article PMC11340619 (Redox Biology, 2024).

Tested on: hepatic I/R injury
Conditions: in mice; NRF2 agonist treatment; ref [14],[15]

Row | Structure (SMILES) | hepatic I/R injury
1 | C=C(CC(=O)O)C(=O)O [itaconate] | alleviate hepatic I/R injury in mice
2 | C[S+]([O-])CCCCN=C=S (centres unmarked) [sulforaphane] | alleviate hepatic I/R injury in mice
